Measurements reported in article PMC5290327, “SC83288 is a clinical development candidate for the treatment of severe malaria” (Nature Communications, 2017).

Columns and labels:
Test in all cases: KINOMEscan
Format in all cases: binding
Conditions in all cases: read-out: Remaining enzyme activity
[1] = biological target: T1, ERN1 (Homo sapiens, UniProt O75460)
T1 construct: purchased Ambit (DiscoverX) KINOMEscan; Cerep
Protocol: (§1) The KINOMEscan was carried out by Ambit (San Diego, USA) according to a previously established protocol. The experiment was based on a competition binding assay that quantitatively measures the ability of a compound to compete with an immobilized, active-site directed ligand. The assay is performed by combining three components: DNA-tagged kinase; immobilized ligand; and a test compound. The ability of the test compound to compete with the immobilized ligand is measured via quantitative PCR of the DNA tag.
(§2) For most assays, kinase-tagged T7 phage strains were grown in parallel in 24-well blocks in an Escherichia coli host derived from the BL21 strain. E. coli were grown to log-phase and infected with T7 phage from a frozen stock and incubated with shaking at 32 °C until lysis (90–150 min). The lysates were centrifuged (6,000g) and filtered (0.2 μm) to remove cell debris. The remaining kinases were produced in HEK-293 cells (Sigma Aldrich, catalogue number: 85120602) and subsequently tagged with DNA for quantitative PCR detection. […] The liganded beads were blocked with excess biotin and washed with blocking buffer (SeaBlock (Pierce), 1% bovine serum albumin, 0.05% Tween 20 and 1 mM dithiothreitol) to remove unbound ligand and to reduce non-specific phage binding. […] SC81458 was prepared as 40x stock in 100% DMSO and directly diluted into the assay to a final concentration of 10 μM. All reactions were performed in polypropylene 384-well plates in a final volume of 0.04 ml. […] The kinase concentration in the eluates was measured by quantitative PCR.

[2] = biological target: T2, PYK2 (Homo sapiens, UniProt Q14289)
T2 construct: purchased Ambit (DiscoverX) KINOMEscan; Cerep
Protocol: as §1, §2

[3] = biological target: T3, ITK (Homo sapiens, UniProt Q08881)
T3 construct: purchased Ambit (DiscoverX) KINOMEscan; Cerep
T3 sequence (Q08881 whole entry): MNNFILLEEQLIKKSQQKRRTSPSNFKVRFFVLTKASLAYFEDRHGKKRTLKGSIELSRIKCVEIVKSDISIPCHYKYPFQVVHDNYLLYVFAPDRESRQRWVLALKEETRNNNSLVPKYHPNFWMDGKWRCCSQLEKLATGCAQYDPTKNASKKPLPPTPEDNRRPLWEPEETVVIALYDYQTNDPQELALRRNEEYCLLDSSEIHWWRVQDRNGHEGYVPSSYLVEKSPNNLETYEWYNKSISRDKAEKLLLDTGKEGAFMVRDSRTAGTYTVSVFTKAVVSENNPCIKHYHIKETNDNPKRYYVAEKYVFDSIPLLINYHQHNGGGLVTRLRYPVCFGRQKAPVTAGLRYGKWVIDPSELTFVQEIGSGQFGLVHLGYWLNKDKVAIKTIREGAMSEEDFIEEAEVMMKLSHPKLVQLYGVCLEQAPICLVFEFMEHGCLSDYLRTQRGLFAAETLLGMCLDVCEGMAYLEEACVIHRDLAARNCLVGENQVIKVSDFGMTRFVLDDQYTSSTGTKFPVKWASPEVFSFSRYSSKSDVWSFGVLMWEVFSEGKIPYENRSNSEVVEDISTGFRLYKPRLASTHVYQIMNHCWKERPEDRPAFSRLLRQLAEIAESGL
Protocol: as §1, §2

[4] = biological target: T4, TNNI3K (Homo sapiens, UniProt Q59H18)
T4 construct: purchased Ambit (DiscoverX) KINOMEscan; Cerep
Protocol: as §1, §2

[5] = biological target: T5, PIK3C2g (Homo sapiens, UniProt O75747)
T5 construct: purchased Ambit (DiscoverX) KINOMEscan; Cerep
Protocol: as §1, §2

[6] = biological target: T6, HCK (Homo sapiens, UniProt P08631)
T6 construct: purchased Ambit (DiscoverX) KINOMEscan; Cerep
Protocol: as §1, §2

[7] = biological target: T7, HUNK (Homo sapiens, UniProt P57058)
T7 construct: purchased Ambit (DiscoverX) KINOMEscan; Cerep
Protocol: as §1, §2

[8] = biological target: T8, PCTk3 (Homo sapiens, UniProt Q07002)
T8 construct: purchased Ambit (DiscoverX) KINOMEscan; Cerep
Protocol: as §1, §2

[9] = biological target: T9, FGFR2 (Homo sapiens, UniProt P21802)
T9 construct: purchased Ambit (DiscoverX) KINOMEscan; Cerep
T9 sequence (P21802 22-821): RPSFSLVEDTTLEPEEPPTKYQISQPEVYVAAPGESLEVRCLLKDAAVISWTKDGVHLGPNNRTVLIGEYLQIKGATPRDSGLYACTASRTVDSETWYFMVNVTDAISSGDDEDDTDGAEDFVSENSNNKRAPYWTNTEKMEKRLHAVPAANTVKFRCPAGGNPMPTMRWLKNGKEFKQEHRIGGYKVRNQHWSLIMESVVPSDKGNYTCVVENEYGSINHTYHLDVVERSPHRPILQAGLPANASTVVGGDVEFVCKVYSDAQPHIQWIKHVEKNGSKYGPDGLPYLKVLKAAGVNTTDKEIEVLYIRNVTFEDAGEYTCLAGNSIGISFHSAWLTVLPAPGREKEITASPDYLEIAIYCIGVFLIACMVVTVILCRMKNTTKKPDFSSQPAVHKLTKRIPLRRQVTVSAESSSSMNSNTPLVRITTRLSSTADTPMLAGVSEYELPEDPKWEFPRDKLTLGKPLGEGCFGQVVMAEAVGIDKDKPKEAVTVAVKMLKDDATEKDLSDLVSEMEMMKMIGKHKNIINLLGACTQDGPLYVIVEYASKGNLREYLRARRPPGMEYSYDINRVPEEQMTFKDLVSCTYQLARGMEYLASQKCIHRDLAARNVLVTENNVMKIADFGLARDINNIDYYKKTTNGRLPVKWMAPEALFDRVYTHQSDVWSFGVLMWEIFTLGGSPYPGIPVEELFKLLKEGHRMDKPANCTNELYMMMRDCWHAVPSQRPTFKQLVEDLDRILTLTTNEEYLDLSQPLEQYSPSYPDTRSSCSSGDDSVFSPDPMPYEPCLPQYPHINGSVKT
Protocol: as §1, §2

[10] = biological target: T10, MST1R (Homo sapiens, UniProt Q04912)
T10 construct: purchased Ambit (DiscoverX) KINOMEscan; Cerep
Protocol: as §1, §2

[11] = biological target: T11, IGF1R (Homo sapiens, UniProt P08069)
T11 construct: purchased Ambit (DiscoverX) KINOMEscan; Cerep
Protocol: as §1, §2

[12] = biological target: T12, PIK3CA(H1047L) (Homo sapiens, UniProt P42336, H1047L)
T12 construct: purchased Ambit (DiscoverX) KINOMEscan; Cerep
Protocol: as §1, §2

[13] = biological target: T13, PIK3CA(E542K) (Homo sapiens, UniProt P42336, E542K)
T13 construct: purchased Ambit (DiscoverX) KINOMEscan; Cerep
Protocol: as §1, §2

[14] = biological target: T14, ERK1 (Homo sapiens, UniProt P27361)
T14 construct: purchased Ambit (DiscoverX) KINOMEscan; Cerep
Protocol: as §1, §2

[15] = biological target: T15, CLK3 (Homo sapiens, UniProt P49761)
T15 construct: purchased Ambit (DiscoverX) KINOMEscan; Cerep
T15 sequence (P49761 whole entry): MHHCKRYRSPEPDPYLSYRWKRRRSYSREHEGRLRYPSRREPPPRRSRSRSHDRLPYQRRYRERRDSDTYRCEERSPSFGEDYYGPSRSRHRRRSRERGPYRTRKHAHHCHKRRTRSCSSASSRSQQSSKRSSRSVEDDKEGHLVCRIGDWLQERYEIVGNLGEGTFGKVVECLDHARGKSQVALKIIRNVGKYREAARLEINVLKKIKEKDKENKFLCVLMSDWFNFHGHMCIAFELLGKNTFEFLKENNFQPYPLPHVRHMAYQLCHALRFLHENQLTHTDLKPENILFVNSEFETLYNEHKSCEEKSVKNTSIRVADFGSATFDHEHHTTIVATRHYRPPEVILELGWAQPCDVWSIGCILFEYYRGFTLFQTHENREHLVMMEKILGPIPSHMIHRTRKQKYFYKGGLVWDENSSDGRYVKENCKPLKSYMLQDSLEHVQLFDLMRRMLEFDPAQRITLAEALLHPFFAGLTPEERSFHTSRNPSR
Protocol: as §1, §2

[16] = biological target: T16, CDC2L2 (Homo sapiens, UniProt Q9UQ88)
T16 construct: purchased Ambit (DiscoverX) KINOMEscan; Cerep
T16 sequence (Q9UQ88 whole entry): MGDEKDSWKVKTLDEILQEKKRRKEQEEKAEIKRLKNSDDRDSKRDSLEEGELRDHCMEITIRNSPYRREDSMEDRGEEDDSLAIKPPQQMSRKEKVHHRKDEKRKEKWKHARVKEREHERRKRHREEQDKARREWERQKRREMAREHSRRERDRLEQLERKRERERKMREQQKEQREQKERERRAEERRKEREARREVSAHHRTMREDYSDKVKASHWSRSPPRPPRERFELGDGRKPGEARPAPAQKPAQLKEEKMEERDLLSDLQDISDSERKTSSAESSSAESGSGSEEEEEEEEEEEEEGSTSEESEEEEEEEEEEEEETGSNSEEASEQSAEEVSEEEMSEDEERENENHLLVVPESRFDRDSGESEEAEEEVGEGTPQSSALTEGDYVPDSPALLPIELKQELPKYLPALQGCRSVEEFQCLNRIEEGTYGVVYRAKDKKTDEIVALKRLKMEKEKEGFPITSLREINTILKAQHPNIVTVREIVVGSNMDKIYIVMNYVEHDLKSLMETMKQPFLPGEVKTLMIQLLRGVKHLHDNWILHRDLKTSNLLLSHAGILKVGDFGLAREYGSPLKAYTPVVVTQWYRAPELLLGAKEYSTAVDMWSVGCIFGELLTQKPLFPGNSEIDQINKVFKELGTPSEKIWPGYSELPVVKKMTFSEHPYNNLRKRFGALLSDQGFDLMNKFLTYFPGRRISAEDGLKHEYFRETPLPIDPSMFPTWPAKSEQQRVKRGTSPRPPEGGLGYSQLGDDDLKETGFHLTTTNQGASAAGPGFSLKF
Protocol: as §1, §2

[17] = biological target: T17, MEK6 (Homo sapiens, UniProt P52564)
T17 construct: purchased Ambit (DiscoverX) KINOMEscan; Cerep
T17 sequence (P52564 whole entry): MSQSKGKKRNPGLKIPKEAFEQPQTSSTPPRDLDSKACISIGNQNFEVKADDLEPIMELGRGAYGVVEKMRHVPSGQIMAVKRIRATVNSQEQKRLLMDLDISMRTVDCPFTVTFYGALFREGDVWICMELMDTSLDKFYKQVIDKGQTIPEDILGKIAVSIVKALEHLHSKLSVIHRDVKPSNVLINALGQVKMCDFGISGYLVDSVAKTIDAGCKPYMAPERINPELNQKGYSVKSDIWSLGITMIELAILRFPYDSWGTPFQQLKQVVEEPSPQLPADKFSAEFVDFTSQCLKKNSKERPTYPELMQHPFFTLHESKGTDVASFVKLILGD
Protocol: as §1, §2

[18] = biological target: T18, KIT(V559D, T670I) (Homo sapiens, UniProt P10721, T670I/V559D)
T18 construct: purchased Ambit (DiscoverX) KINOMEscan; Cerep
Protocol: as §1, §2

[19] = biological target: T19, MET(Y1235D) (Homo sapiens, UniProt P08581, Y1235D)
T19 construct: purchased Ambit (DiscoverX) KINOMEscan; Cerep
T19 sequence (P08581 25-1390 Y1235D): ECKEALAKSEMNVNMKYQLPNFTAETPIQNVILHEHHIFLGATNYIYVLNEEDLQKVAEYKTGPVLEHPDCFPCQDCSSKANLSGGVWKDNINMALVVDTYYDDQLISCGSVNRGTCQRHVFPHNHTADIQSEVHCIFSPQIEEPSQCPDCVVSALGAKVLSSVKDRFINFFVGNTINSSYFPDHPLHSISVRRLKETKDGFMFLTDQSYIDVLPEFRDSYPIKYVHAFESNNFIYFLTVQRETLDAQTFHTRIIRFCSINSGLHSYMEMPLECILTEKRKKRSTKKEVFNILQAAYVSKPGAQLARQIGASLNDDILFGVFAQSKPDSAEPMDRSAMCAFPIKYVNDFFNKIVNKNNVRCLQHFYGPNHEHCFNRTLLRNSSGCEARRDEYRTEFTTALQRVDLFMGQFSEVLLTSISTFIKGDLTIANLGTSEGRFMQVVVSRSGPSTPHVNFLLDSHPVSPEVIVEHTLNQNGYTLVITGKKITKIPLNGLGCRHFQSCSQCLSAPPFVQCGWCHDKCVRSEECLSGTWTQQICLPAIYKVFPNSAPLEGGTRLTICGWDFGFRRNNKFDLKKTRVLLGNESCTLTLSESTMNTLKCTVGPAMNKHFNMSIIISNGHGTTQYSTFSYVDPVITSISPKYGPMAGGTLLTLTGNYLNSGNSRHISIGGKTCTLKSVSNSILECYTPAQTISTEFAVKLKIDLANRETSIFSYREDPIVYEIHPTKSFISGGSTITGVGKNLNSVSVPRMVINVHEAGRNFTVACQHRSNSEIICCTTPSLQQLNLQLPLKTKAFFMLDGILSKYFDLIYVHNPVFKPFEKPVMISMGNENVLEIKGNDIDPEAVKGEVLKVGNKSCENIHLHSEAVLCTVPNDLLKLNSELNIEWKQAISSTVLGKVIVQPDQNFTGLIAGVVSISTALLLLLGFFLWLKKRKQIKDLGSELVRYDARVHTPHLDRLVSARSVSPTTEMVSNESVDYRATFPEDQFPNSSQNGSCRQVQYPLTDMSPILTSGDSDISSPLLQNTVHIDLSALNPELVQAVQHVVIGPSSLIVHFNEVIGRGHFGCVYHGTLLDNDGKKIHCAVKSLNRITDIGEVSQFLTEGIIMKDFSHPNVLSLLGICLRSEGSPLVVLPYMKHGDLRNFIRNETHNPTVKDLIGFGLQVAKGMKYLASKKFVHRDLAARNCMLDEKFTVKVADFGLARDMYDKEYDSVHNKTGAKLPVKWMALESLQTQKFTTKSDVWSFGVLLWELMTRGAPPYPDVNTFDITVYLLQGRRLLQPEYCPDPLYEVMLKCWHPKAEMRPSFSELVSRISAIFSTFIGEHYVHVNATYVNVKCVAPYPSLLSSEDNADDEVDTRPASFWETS
Protocol: as §1, §2

[20] = biological target: T20, JNK3 (Homo sapiens, UniProt P53779)
T20 construct: purchased Ambit (DiscoverX) KINOMEscan; Cerep
Protocol: as §1, §2

[21] = biological target: T21, ADCK3 (Homo sapiens, UniProt Q8NI60)
T21 construct: purchased Ambit (DiscoverX) KINOMEscan; Cerep
Protocol: as §1, §2

[22] = biological target: T22, WEE1 (Homo sapiens, UniProt P30291)
T22 construct: purchased Ambit (DiscoverX) KINOMEscan; Cerep
T22 sequence (P30291 whole entry): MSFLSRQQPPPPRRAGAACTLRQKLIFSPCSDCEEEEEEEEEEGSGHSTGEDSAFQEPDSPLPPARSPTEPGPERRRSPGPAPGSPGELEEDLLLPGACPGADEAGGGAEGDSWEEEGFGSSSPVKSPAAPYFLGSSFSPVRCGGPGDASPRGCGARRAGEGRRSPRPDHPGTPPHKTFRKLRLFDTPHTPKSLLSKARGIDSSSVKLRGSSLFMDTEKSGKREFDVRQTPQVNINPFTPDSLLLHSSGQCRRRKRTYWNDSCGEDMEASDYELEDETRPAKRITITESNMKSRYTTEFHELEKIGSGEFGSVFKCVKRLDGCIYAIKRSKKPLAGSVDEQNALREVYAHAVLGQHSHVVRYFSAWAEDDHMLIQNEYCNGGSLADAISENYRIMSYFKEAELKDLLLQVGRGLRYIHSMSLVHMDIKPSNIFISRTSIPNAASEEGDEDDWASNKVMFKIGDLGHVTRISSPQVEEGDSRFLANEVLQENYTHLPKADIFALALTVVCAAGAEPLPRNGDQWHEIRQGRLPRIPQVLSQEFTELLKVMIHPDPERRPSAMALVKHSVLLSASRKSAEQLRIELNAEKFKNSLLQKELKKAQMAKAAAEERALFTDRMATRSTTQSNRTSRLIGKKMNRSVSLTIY
Protocol: as §1, §2

[23] = biological target: T23, RIOK3 (Homo sapiens, UniProt O14730)
T23 construct: purchased Ambit (DiscoverX) KINOMEscan; Cerep
Protocol: as §1, §2

[24] = biological target: T24, EGFR(L858R) (Homo sapiens, UniProt P00533, L858R)
T24 construct: purchased Ambit (DiscoverX) KINOMEscan; Cerep
Protocol: as §1, §2

[25] = biological target: T25, SRPK3 (Homo sapiens, UniProt Q9UPE1)
T25 construct: purchased Ambit (DiscoverX) KINOMEscan; Cerep
Protocol: as §1, §2

[26] = biological target: T26, CSNK1e (Homo sapiens, UniProt P49674)
T26 construct: purchased Ambit (DiscoverX) KINOMEscan; Cerep
Protocol: as §1, §2

[27] = biological target: T27, PIK3C2b (Homo sapiens, UniProt O00750)
T27 construct: purchased Ambit (DiscoverX) KINOMEscan; Cerep
Protocol: as §1, §2

[28] = biological target: T28, BRAF (Homo sapiens, UniProt P15056)
T28 construct: purchased Ambit (DiscoverX) KINOMEscan; Cerep
Protocol: as §1, §2

[29] = biological target: T29, YSK1 (Homo sapiens, UniProt O00506)
T29 construct: purchased Ambit (DiscoverX) KINOMEscan; Cerep
Protocol: as §1, §2

[30] = biological target: T30, RPS6KA4(Kin.Dom.2-C-term) (Homo sapiens, UniProt O75676)
T30 construct: RPS6KA4(Kin.Dom.2-C-term); purchased Ambit (DiscoverX) KINOMEscan; Cerep
Protocol: as §1, §2

[31] = biological target: T31, CSF1R (Homo sapiens, UniProt P07333)
T31 construct: purchased Ambit (DiscoverX) KINOMEscan; Cerep
Protocol: as §1, §2

[32] = biological target: T32, CHEK1 (Homo sapiens, UniProt O14757)
T32 construct: purchased Ambit (DiscoverX) KINOMEscan; Cerep
Protocol: as §1, §2

[33] = biological target: T33, ULK2 (Homo sapiens, UniProt Q8IYT8)
T33 construct: purchased Ambit (DiscoverX) KINOMEscan; Cerep
Protocol: as §1, §2

Structure (SMILES): CCCCN1CCN(C(=N)c2cccc(NC(=O)Nc3ccc(S(=O)(=O)NCc4ccc(S(N)(=O)=O)cc4)cc3)c2)CC1 [SC81458, 4-(3-(3-((4-butylpiperazin-1-yl)(imino)methyl)phenyl)ureido)-N-(4-sulfamoylbenzyl) benzenesulfonamide]
- remaining binding at 10 µM [1]: 100%
- remaining binding at 10 µM [2]: 98%
- remaining binding at 10 µM [3]: 86%
- remaining binding at 10 µM [4]: 100%
- remaining binding at 10 µM [5]: 100%
- remaining binding at 10 µM [6]: 100%
- remaining binding at 10 µM [7]: 100%
- remaining binding at 10 µM [8]: 98%
- remaining binding at 10 µM [9]: 100%
- remaining binding at 10 µM [10]: 91%
- remaining binding at 10 µM [11]: 77%
- remaining binding at 10 µM [12]: 100%
- remaining binding at 10 µM [13]: 100%
- remaining binding at 10 µM [14]: 99%
- remaining binding at 10 µM [15]: 100%
- remaining binding at 10 µM [16]: 100%
- remaining binding at 10 µM [17]: 81%
- remaining binding at 10 µM [18]: 85%
- remaining binding at 10 µM [19]: 100%
- remaining binding at 10 µM [20]: 100%
- remaining binding at 10 µM [21]: 100%
- remaining binding at 10 µM [22]: 100%
- remaining binding at 10 µM [23]: 77%
- remaining binding at 10 µM [24]: 92%
- remaining binding at 10 µM [25]: 83%
- remaining binding at 10 µM [26]: 100%
- remaining binding at 10 µM [27]: 98%
- remaining binding at 10 µM [28]: 95%
- remaining binding at 10 µM [29]: 76%
- remaining binding at 10 µM [30]: 92%
- remaining binding at 10 µM [31]: 82%
- remaining binding at 10 µM [32]: 98%
- remaining binding at 10 µM [33]: 100%
